Test results: patent publication US12319672B2, “Alpha-D-galactopyranoside derivatives” (Idorsia Pharmaceuticals Ltd, priority 2019, dated 2025)

Assays:
human Gal-1 (hGal-1) = assay: Competitive binding assay: binding of biotinylated hGal-1 to microplate-adsorbed asialofetuin (ASF); conditions: Activities on hGal-1; mean values of several measurements
Method in brief: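 Spectrophotometric readout (streptavidin-peroxidase, ABTS) of biotinylated galectin retained on ASF-coated wells. Biotinylated hGal-1 or hGal-3, 300-1000 ng/mL, co-incubated with test compound 3 h at 4° C, then washed. Mean IC50 from repeat runs.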

human Gal-3 (hGal-3) = human Gal-3 (hGal-3) (Homo sapiens (Human), UniProt P17931); assay: Competitive binding assay: binding of biotinylated hGal-3 to microplate-adsorbed asialofetuin (ASF); conditions: Activity on hGal-3; mean values of several measurements
human Gal-3 (hGal-3), sequence (P17931 whole entry): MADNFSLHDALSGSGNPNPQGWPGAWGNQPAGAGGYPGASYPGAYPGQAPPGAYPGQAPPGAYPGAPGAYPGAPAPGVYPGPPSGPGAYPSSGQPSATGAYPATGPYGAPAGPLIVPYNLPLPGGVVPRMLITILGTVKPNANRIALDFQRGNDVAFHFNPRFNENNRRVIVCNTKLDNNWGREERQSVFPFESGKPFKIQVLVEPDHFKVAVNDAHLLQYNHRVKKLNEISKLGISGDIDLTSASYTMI
Method in brief: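 Compounds in DMSO dilution series competed with 300-1000 ng/mL biotinylated hGal-3 for asialofetuin adsorbed on the plate (3 h, 4° C). Streptavidin-peroxidase at 80 ng/mL (1 h, 4° C) with ABTS gave a spectrophotometric read-out, and IC50 was reported as the mean of repeat runs.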

human Gal-1 (hGal-1), sequence (P09382 2-135 limits assumed): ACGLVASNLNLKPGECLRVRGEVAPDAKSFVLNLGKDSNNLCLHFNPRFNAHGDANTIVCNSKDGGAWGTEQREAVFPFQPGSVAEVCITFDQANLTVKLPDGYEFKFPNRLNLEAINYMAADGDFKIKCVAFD

IC50 (human Gal-1 (hGal-1)) [µM] | IC50 (human Gal-3 (hGal-3)) [µM] | Structure (SMILES)
0.23 | 0.031 | CO[C@@H]1[C@@H](n2cc(-c3cc(F)c(F)c(F)c3)nn2)[C@@H](O)[C@@H](CO)O[C@@H]1Cc1cc(C2CCN(C(=O)NC(C)(C)C)CC2)on1 [Example 3.52, N-(tert-butyl)-4-(3-(((2R,3R,4S,5R,6R)-5-hydroxy-6-(hydroxymethyl)-3-methoxy-4-(4-(3,4,5-trifluorophenyl)-1H-1,2,3-triazol-1-yl)tetrahydro-2H-pyran-2-yl)methyl)isoxazol-5-yl)piperidine-1-carboxamide]
1.51 | 0.44 | CO[C@@H]1[C@@H](n2cc(-c3cc(F)c(F)c(F)c3)nn2)[C@@H](O)[C@@H](CO)O[C@@H]1Cc1cc(C2CCN(C(=O)[C@@H](N)C(C)C)CC2)on1 [Example 3.54, (S)-2-amino-1-(4-(3-(((2R,3R,4S,5R,6R)-5-hydroxy-6-(hydroxymethyl)-3-methoxy-4-(4-(3,4,5-trifluorophenyl)-1H-1,2,3-triazol-1-yl)tetrahydro-2H-pyran-2-yl)methyl)isoxazol-5-yl)piperidin-1-yl)-3-methylbutan-1-one]
1.87 | 0.061 | CO[C@@H]1[C@@H](n2cc(-c3cc(F)c(F)c(F)c3)nn2)[C@@H](O)[C@@H](CO)O[C@@H]1Cc1cc(C2CCN(S(=O)(=O)N(C)C)CC2)on1 [Example 3.58, 4-(3-(((2R,3R,4S,5R,6R)-5-hydroxy-6-(hydroxymethyl)-3-methoxy-4-(4-(3,4,5-trifluorophenyl)-1H-1,2,3-triazol-1-yl)tetrahydro-2H-pyran-2-yl)methyl)isoxazol-5-yl)-N,N-dimethylpiperidine-1-sulfonamide]
0.98 | 0.042 | CO[C@@H]1[C@@H](n2cc(-c3cc(F)c(F)c(F)c3)nn2)[C@@H](O)[C@@H](CO)O[C@@H]1Cc1cc(C2CCN(C(=O)NC3CC3)CC2)on1 [Example 3.59, N-cyclopropyl-4-(3-(((2R,3R,4S,5R,6R)-5-hydroxy-6-(hydroxymethyl)-3-methoxy-4-(4-(3,4,5-trifluorophenyl)-1H-1,2,3-triazol-1-yl)tetrahydro-2H-pyran-2-yl)methyl)isoxazol-5-yl)piperidine-1-carboxamide]
5.1 | 0.37 | CO[C@@H]1[C@@H](n2cc(-c3cc(F)c(F)c(F)c3)nn2)[C@@H](O)[C@@H](CO)O[C@@H]1C[C@H]1CC(C2CCN(S(=O)(=O)C(C)C)CC2)=NO1 [Example 3.60, (2R,3R,4S,5R,6R)-2-(hydroxymethyl)-6-(((R)-3-(1-(isopropylsulfonyl)piperidin-4-yl)-4,5-dihydroisoxazol-5-yl)methyl)-5-methoxy-4-(4-(3,4,5-trifluorophenyl)-1H-1,2,3-triazol-1-yl)tetrahydro-2H-pyran-3-ol]
1.12 | 0.072 | CO[C@@H]1[C@@H](n2cc(-c3cc(F)c(F)c(F)c3)nn2)[C@@H](O)[C@@H](CO)O[C@@H]1C[C@@H]1CC(C2CCN(S(=O)(=O)C(C)C)CC2)=NO1 [Example 3.61, (2R,3R,4S,5R,6R)-2-(hydroxymethyl)-6-(((S)-3-(1-(isopropylsulfonyl)piperidin-4-yl)-4,5-dihydroisoxazol-5-yl)methyl)-5-methoxy-4-(4-(3,4,5-trifluorophenyl)-1H-1,2,3-triazol-1-yl)tetrahydro-2H-pyran-3-ol]
1.35 | 0.045 | CO[C@@H]1[C@@H](n2cc(-c3cc(F)c(F)c(F)c3)nn2)[C@@H](O)[C@@H](CO)O[C@@H]1Cc1cc(C2CCN(S(=O)(=O)N3CCOCC3)CC2)on1 [Example 3.62, (2R,3R,4S,5R,6R)-2-(hydroxymethyl)-5-methoxy-6-((5-(1-(morpholinosulfonyl)piperidin-4-yl)isoxazol-3-yl)methyl)-4-(4-(3,4,5-trifluorophenyl)-1H-1,2,3-triazol-1-yl)tetrahydro-2H-pyran-3-ol]
0.56 | 0.069 | CO[C@@H]1[C@@H](n2cc(-c3cc(F)c(F)c(F)c3)nn2)[C@@H](O)[C@@H](CO)O[C@@H]1Cc1cc(C2CCN(S(=O)(=O)N3CCCCC3)CC2)on1 [Example 3.63, (2R,3R,4S,5R,6R)-2-(hydroxymethyl)-5-methoxy-6-((5-(1-(piperidin-1-ylsulfonyl)piperidin-4-yl)isoxazol-3-yl)methyl)-4-(4-(3,4,5-trifluorophenyl)-1H-1,2,3-triazol-1-yl)tetrahydro-2H-pyran-3-ol]
0.76 | 0.025 | CO[C@@H]1[C@@H](n2cc(-c3cc(F)c(F)c(F)c3)nn2)[C@@H](O)[C@@H](CO)O[C@@H]1Cc1cc(C2CCN(S(=O)(=O)N3CCCC3)CC2)on1 [Example 3.64, (2R,3R,4S,5R,6R)-2-(hydroxymethyl)-5-methoxy-6-((5-(1-(pyrrolidin-1-ylsulfonyl)piperidin-4-yl)isoxazol-3-yl)methyl)-4-(4-(3,4,5-trifluorophenyl)-1H-1,2,3-triazol-1-yl)tetrahydro-2H-pyran-3-ol]
1.88 | 0.045 | CO[C@@H]1[C@@H](n2cc(-c3cc(F)c(F)c(F)c3)nn2)[C@@H](O)[C@@H](CO)O[C@@H]1Cc1cc(C2CCN(S(=O)(=O)N3CCC(F)(F)CC3)CC2)on1 [Example 3.65, (2R,3R,4S,5R,6R)-6-((5-(1-((4,4-difluoropiperidin-1-yl)sulfonyl)piperidin-4-yl)isoxazol-3-yl)methyl)-2-(hydroxymethyl)-5-methoxy-4-(4-(3,4,5-trifluorophenyl)-1H-1,2,3-triazol-1-yl)tetrahydro-2H-pyran-3-ol]
3.59 | 0.14 | CO[C@@H]1[C@@H](n2cc(-c3cc(F)c(F)c(F)c3)nn2)[C@@H](O)[C@@H](CO)O[C@@H]1Cc1cc(C2CCN(C(=O)N3CCCCC3)CC2)on1 [Example 3.66, (4-(3-(((2R,3R,4S,5R,6R)-5-hydroxy-6-(hydroxymethyl)-3-methoxy-4-(4-(3,4,5-trifluorophenyl)-1H-1,2,3-triazol-1-yl)tetrahydro-2H-pyran-2-yl)methyl)isoxazol-5-yl)piperidin-1-yl)(piperidin-1-yl)methanone]
0.92 | 0.069 | CO[C@@H]1[C@@H](n2cc(-c3cc(F)c(F)c(F)c3)nn2)[C@@H](O)[C@@H](CO)O[C@@H]1Cc1cc(C2CCN(C(=O)N3CCCC3)CC2)on1 [Example 3.67, (4-(3-(((2R,3R,4S,5R,6R)-5-hydroxy-6-(hydroxymethyl)-3-methoxy-4-(4-(3,4,5-trifluorophenyl)-1H-1,2,3-triazol-1-yl)tetrahydro-2H-pyran-2-yl)methyl)isoxazol-5-yl)piperidin-1-yl)(pyrrolidin-1-yl)methanone]
2.46 | 0.11 | CCN(C)C(=O)N1CCC(c2cc(C[C@H]3O[C@H](CO)[C@H](O)[C@H](n4cc(-c5cc(F)c(F)c(F)c5)nn4)[C@H]3OC)no2)CC1 [Example 3.68, N-ethyl-4-(3-(((2R,3R,4S,5R,6R)-5-hydroxy-6-(hydroxymethyl)-3-methoxy-4-(4-(3,4,5-trifluorophenyl)-1H-1,2,3-triazol-1-yl)tetrahydro-2H-pyran-2-yl)methyl)isoxazol-5-yl)-N-methylpiperidine-1-carboxamide]
2.47 | 0.17 | CO[C@@H]1[C@@H](n2cc(-c3cc(F)c(F)c(F)c3)nn2)[C@@H](O)[C@@H](CO)O[C@@H]1Cc1cc(C2CCN(C(=O)N(C)C)CC2)on1 [Example 3.69, 4-(3-(((2R,3R,4S,5R,6R)-5-hydroxy-6-(hydroxymethyl)-3-methoxy-4-(4-(3,4,5-trifluorophenyl)-1H-1,2,3-triazol-1-yl)tetrahydro-2H-pyran-2-yl)methyl)isoxazol-5-yl)-N,N-dimethylpiperidine-1-carboxamide]
0.82 | 0.084 | CO[C@@H]1[C@@H](n2cc(-c3cc(F)c(F)c(F)c3)nn2)[C@@H](O)[C@@H](CO)O[C@@H]1Cc1cc(C2CCN(C(=O)N3CCN(C)CC3)CC2)on1 [Example 3.70, (4-(3-(((2R,3R,4S,5R,6R)-5-hydroxy-6-(hydroxymethyl)-3-methoxy-4-(4-(3,4,5-trifluorophenyl)-1H-1,2,3-triazol-1-yl)tetrahydro-2H-pyran-2-yl)methyl)isoxazol-5-yl)piperidin-1-yl)(4-methylpiperazin-1-yl)methanone]
13.5 | 1.24 | CO[C@@H]1[C@@H](n2cc(-c3cc(F)c(F)c(F)c3)nn2)[C@@H](O)[C@@H](CO)O[C@@H]1Cn1cc(-c2cccc(F)c2)nn1 [Example 4.01, (2R,3R,4S,5R,6R)-6-((4-(3-fluorophenyl)-1H-1,2,3-triazol-1-yl)methyl)-2-(hydroxymethyl)-5-methoxy-4-(4-(3,4,5-trifluorophenyl)-1H-1,2,3-triazol-1-yl)tetrahydro-2H-pyran-3-ol]
20.3 | 0.69 | CO[C@@H]1[C@@H](n2cc(-c3cc(F)c(F)c(F)c3)nn2)[C@@H](O)[C@@H](CO)O[C@@H]1Cn1cc(-c2ccc3[nH]c(=O)oc3c2)nn1 [Example 4.02, 6-(1-(((2R,3R,4S,5R,6R)-5-hydroxy-6-(hydroxymethyl)-3-methoxy-4-(4-(3,4,5-trifluorophenyl)-1H-1,2,3-triazol-1-yl)tetrahydro-2H-pyran-2-yl)methyl)-1H-1,2,3-triazol-4-yl)benzo[d]oxazol-2(3H)-one]
1.76 | 0.076 | CO[C@@H]1[C@@H](n2cc(-c3cc(F)c(F)c(F)c3)nn2)[C@@H](O)[C@@H](CO)O[C@@H]1Cc1cn(C2CCOCC2)nn1 [Example 4.03, (2R,3R,4S,5R,6R)-2-(hydroxymethyl)-5-methoxy-6-((1-(tetrahydro-2H-pyran-4-yl)-1H-1,2,3-triazol-4-yl)methyl)-4-(4-(3,4,5-trifluorophenyl)-1H-1,2,3-triazol-1-yl)tetrahydro-2H-pyran-3-ol]
